The target of one assay is DGKα (Homo sapiens (Human), UniProt P23743). As to the kind of experiment: In vitro DGKα inhibition assay (ADP-Glo). Type of assay: biochemical. To be noted: His-tagged human recombinant enzyme, 0.1 nM DGKα, 50 μM ATP, 20 μM DLG, 90 minute incubation. The protocol:
(§1) The DGKα and DGKξ biochemical reactions were performed using His-tagged human recombinant enzymes (Signal Chem, DGKα, #D21-1OBH; DGKξ, #D30-10H)) and DLG (Dilauroyl-sn-glycerol) lipid substrate (Signal Chem, #D430-59). ADP-Glo assay was performed using ADP-Glog™ kinase Assay kit (Promega, #V9104). The reactions were carried out in assay buffer containing 40 mM Tris, pH 7.5, 0.1% CHAPS, 0.1% Prionex, 40 mM NaCl, 5 mM MgCl2, 1 mM CaCl2, and 1 mM DTT. DGKα reactions contained 0.1 nM DGKα, 50 μM ATP, and 20 μM DLG. And DGKC reactions contained 0.4 nM DGK, 30 μM ATP, and 20 μM DLG.
(§2) For compound inhibition studies, 40 nL test compound in DMSO was added to wells of white polystyrene plates in 384-well (Greiner, #784075) or 1536-well format (Greiner, #782075). Compounds were added with top concentration of 2 mM with 11 point, 3-fold dilution series. Enzyme solution (contains 2×DGK enzyme concentration in Ix assay buffer) was added to the plate in 2 μL/well volume, followed by 2 μL/well of substrate solution (contains 2×concentration of ATP and DLG substrate in Ix assay buffer). Plates were then centrifuged for 1 min at 1200 RPM and sealed or lidded. For 4 μL reaction volume, test compounds were therefore diluted 100× to final top concentration of 20 μM. After 90 minute incubation, reactions were quenched by addition of 2 μL/well Promega ADP-Glo Reagent, followed by centrifugation and lidding. After 60 min incubation, 2 μL/well Promega Kinase Detection Reagent was added, plates centrifuged, and incubated for 30 min. Plates were then read using Luminescence method on BMG PHERAstar FSX plate reader. Percent inhibition was calculated and IC50s were determined using 4-parameter fit in Genedata Screener. Labcyte Echo acoustic dispenser was used for compound addition, and Formulatrix Tempest liquid handler was used for all reagent dispenses.

The next assay addresses DGKζ (Homo sapiens (Human), UniProt Q13574). As to the kind of experiment: In vitro DGKζ inhibition assay (ADP-Glo). To be noted: His-tagged human recombinant enzyme, 0.4 nM DGK, 30 μM ATP, 20 μM DLG, 90 minute incubation. The assay is classed as biochemical. The protocol:
as §1, §2

This note sets out measurements from US20230399342A1 (Incyte Corporation, priority 2022, published 2023).

DGKζ, sequence (Q13574 whole entry): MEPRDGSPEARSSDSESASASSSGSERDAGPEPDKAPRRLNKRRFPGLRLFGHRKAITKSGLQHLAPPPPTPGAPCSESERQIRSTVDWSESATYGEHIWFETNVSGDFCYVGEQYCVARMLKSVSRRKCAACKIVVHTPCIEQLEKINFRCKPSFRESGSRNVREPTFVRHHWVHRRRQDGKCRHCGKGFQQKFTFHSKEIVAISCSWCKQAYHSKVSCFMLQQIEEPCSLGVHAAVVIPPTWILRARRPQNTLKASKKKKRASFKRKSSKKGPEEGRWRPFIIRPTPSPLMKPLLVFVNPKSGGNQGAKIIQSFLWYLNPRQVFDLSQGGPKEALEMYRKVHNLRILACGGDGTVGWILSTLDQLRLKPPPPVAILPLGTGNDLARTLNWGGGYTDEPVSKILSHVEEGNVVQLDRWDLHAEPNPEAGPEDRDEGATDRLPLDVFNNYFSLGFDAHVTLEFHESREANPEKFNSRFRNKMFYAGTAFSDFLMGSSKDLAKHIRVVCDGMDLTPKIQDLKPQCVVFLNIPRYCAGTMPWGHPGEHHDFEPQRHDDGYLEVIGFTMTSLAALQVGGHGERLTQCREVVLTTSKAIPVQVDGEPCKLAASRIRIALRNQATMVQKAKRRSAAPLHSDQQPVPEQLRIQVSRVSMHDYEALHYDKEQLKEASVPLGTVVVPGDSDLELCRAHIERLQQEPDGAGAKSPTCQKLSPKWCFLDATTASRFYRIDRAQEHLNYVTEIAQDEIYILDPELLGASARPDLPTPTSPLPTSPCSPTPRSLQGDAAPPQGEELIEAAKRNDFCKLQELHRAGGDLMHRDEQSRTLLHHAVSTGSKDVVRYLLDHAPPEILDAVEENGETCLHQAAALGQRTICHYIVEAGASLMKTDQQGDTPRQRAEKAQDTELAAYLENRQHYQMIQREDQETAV
DGKα, sequence (P23743 whole entry): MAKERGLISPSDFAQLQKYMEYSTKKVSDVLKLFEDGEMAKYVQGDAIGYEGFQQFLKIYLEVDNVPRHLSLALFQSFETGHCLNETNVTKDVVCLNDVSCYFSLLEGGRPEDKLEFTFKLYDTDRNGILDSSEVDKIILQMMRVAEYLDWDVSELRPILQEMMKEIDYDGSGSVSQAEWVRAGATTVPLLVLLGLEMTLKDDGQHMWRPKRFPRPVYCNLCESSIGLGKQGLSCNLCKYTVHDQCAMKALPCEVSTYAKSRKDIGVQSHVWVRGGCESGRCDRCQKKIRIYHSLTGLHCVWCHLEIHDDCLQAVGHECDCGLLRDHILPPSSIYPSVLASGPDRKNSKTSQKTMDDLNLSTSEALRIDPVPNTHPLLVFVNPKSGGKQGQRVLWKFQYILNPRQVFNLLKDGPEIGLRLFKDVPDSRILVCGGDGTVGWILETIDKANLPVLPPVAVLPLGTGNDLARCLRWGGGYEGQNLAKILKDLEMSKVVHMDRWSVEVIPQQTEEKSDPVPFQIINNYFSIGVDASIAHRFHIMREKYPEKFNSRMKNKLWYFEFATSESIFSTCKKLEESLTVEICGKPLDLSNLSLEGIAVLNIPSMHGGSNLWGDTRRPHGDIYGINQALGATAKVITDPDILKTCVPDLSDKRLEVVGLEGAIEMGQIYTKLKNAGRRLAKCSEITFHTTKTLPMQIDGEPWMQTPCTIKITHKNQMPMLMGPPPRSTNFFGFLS

Consider `Cc1nc2c(N3C[C@@H](C)N(C(c4ccc(C(F)(F)F)cc4)C4CC(F)(F)C4)C[C@@H]3C)nc3nncn3c2n1C[C@@H]1CCCO1` (single isomer, unassigned) [Example 43], for which the IC50 on DGKα and at DGKζ was not above 20 nM each time. As to `Cc1nc2c(N3C[C@@H](C)N(C(c4ccc(F)c(Cl)c4)C4CC(F)(F)C4)C[C@@H]3C)nc3nncn3c2n1C[C@@H]1CCCO1` (single isomer, unassigned) [Example 44], the IC50 on DGKα and on DGKζ was not above 20 nM throughout.

On to `Cc1nc2c(N3C[C@@H](C)N(C(c4ccc(C(F)(F)F)c(F)c4)C4CC(F)(F)C4)C[C@@H]3C)nc3nncn3c2n1C[C@@H]1CCCO1` (single isomer, unassigned) [Example 45], for which the IC50 on DGKα and on DGKζ was not above 20 nM each time.

As for `Cc1nc2c(N3C[C@@H](C)N(C(c4ccc(Cl)c(F)c4)C4CC(F)(F)C4)C[C@@H]3C)nc3nncn3c2n1C[C@@H]1CCCO1` (single isomer, unassigned) [Example 50], the IC50 on DGKα and at DGKζ was not above 20 nM throughout. In the case of `C[C@@H]1CN(c2nc3nncn3c3c2ncn3CCN(C)C)[C@@H](C)CN1C(c1ccc(Cl)cc1)C1CC(F)(F)C1` (single isomer, unassigned) [Example 64], the IC50 on DGKα and on DGKζ was not above 20 nM in each case. Turning to `Cc1nc2c(N3C[C@@H](C)N(C(c4ccc(C(F)F)c(F)c4)C(C)C)C[C@@H]3C)nc3nncn3c2n1C[C@@H]1CCCO1` (single isomer, unassigned) [Example 81], the IC50 on DGKα and on DGKζ was not above 20 nM each time.

Turning to `Cc1nc2c(N3C[C@@H](C)N([C@@H](c4ccc(F)c(Cl)c4)C(C)C)C[C@@H]3C)nc3nncn3c2n1C[C@@H]1CCCO1` (single isomer, unassigned) [Example 87], the IC50 on DGKα and on DGKζ was not above 20 nM in each case. Consider `Cc1nc2c(N3C[C@@H](C)N([C@H](c4ccc(F)cc4)c4ccc(F)c(C(F)(F)F)n4)C[C@@H]3C)nc3nncn3c2n1C[C@@H]1CCCO1` (single isomer, unassigned) [Example 104], for which the IC50 at DGKα and at DGKζ was not above 20 nM each time. As to `CC[C@@H]1CN(c2nc3nncn3c3c2nnn3C[C@@H]2CCCO2)[C@@H](C)CN1C(c1ccc(F)cc1)C1CC(F)(F)C1` (single isomer, unassigned) [Example 120], the half-inhibitory concentration (IC50) at DGKα and at DGKζ was not above 20 nM in each case. `Cc1nc2c(N3C[C@@H](C)N(C(c4ccc(Cl)cc4)c4ccc(F)c(Cl)c4)C[C@@H]3C)nc3nncn3c2n1C[C@@H]1CCCO1` (single isomer, unassigned) [Example 140]: the IC50 on DGKα and on DGKζ was not above 20 nM each time. `Cc1nc2c(N3C[C@@H](C)N(C(c4ccc(Br)cc4)c4ccc(F)c(Cl)c4)C[C@@H]3C)nc3nncn3c2n1C[C@@H]1CCCO1` (single isomer, unassigned) [Example 141]: the IC50 at DGKα and at DGKζ was not above 20 nM each time. As to `C[C@@H]1CN(c2nc3nncn3c3scnc23)[C@@H](C)CN1C(c1ccc(F)cc1)c1ccc(F)cc1` [Example 1, 4-((2S,5R)-4-(Bis(4-fluorophenyl)methyl)-2,5-dimethylpiperazin-1-yl)thiazolo[4,5-e][1,2,4]triazolo[4,3-a]pyrimidine], the values for the IC50 at DGKα and at DGKζ were not above 20 nM and 20 to 200 nM, respectively. Consider `Cc1nnc2nc(N3C[C@@H](C)N(C(c4ccc(F)cc4)c4ccc(F)cc4)C[C@@H]3C)c3ncsc3n12` [Example 2, 4-((2S,5R)-4-(Bis(4-fluorophenyl)methyl)-2,5-dimethylpiperazin-1-yl)-8-methylthiazolo[4,5-e][1,2,4]triazolo[4,3-a]pyrimidine], for which the IC50 at DGKα is not above 20 nM; at DGKζ, 200 to 2000 nM. The corresponding values for `C[C@@H]1CN(c2nc3nncn3c3sc(C(F)F)nc23)[C@@H](C)CN1C(c1ccc(F)cc1)c1ccc(F)cc1` [Example 3, 4-((2S,5R)-4-(Bis(4-fluorophenyl)methyl)-2,5-dimethylpiperazin-1-yl)-2-(difluoromethyl)thiazolo[4,5-e][1,2,4]triazolo[4,3-a]pyrimidine] are not above 20 nM and 200 to 2000 nM. On the same counts, the results for `C[C@@H]1CN(c2nc3nncn3c3sc(CCC#N)nc23)[C@@H](C)CN1C(c1ccc(F)cc1)c1ccc(F)cc1` [Example 4, 3-(4-((2S,5R)-4-(Bis(4-fluorophenyl)methyl)-2,5-dimethylpiperazin-1-yl)thiazolo[4,5-e][1,2,4]triazolo[4,3-a]pyrimidin-2-yl)propanenitrile] are not above 20 nM and 200 to 2000 nM.

For the compound `C[C@@H]1CN(c2nc3nncn3c3sc(-c4cn[nH]c4)nc23)[C@@H](C)CN1C(c1ccc(F)cc1)c1ccc(F)cc1` [Example 5, 4-((2S,5R)-4-(Bis(4-fluorophenyl)methyl)-2,5-dimethylpiperazin-1-yl)-2-(1H-pyrazol-4-yl)thiazolo[4,5-e][1,2,4]triazolo[4,3-a]pyrimidine], the IC50 on DGKα was not above 20 nM; at DGKζ, more than 2000 nM. The corresponding values for `C[C@@H]1CN(c2nc3nncn3c3c2cnn3C)[C@@H](C)CN1C(c1ccc(F)cc1)c1ccc(F)cc1` [Example 6, 4-((2S,5R)-4-(Bis(4-fluorophenyl)methyl)-2,5-dimethylpiperazin-1-yl)-1-methyl-1H-pyrazolo[4,3-e][1,2,4]triazolo[4,3-a]pyrimidine] are not above 20 nM and more than 2000 nM. On to `C[C@@H]1CN(c2nc3nncn3c3ccoc23)[C@@H](C)CN1C(c1ccc(F)cc1)c1ccc(F)cc1` [Example 7, 5-((2S,5R)-4-(Bis(4-fluorophenyl)methyl)-2,5-dimethylpiperazin-1-yl)furo[2,3-e][1,2,4]triazolo[4,3-a]pyrimidine], for which the values for the IC50 on DGKα and on DGKζ were not above 20 nM and more than 2000 nM, respectively.

On to `C[C@@H]1CN(c2nc3nncn3c3ccsc23)[C@@H](C)CN1C(c1ccc(F)cc1)c1ccc(F)cc1` [Example 8, 5-((2S,5R)-4-(Bis(4-fluor ophenyl)methyl)-2,5-dimethylpiperazin-1-yl)thieno[2,3-e][1,2,4]triazolo[4,3-a]pyrimidine], for which the IC50 at DGKζ lay in the range of 200 to 2000 nM.

As for `CCn1ccc2c1c(N1C[C@@H](C)N(C(c3ccc(F)cc3)c3ccc(F)cc3)C[C@@H]1C)nc1nncn12` [Example 10, 5-((2S,5R)-4-(Bis(4-fluorophenyl)methyl)-2,5-dimethylpiperazin-1-yl)-6-ethyl-6H-pyrrolo[2,3-e][1,2,4]triazolo[4,3-a]pyrimidine], the IC50 on DGKα was not above 20 nM; at DGKζ it was more than 2000 nM.

Turning to `C[C@@H]1CN(c2cc3nncn3c3ccsc23)[C@@H](C)CN1C(c1ccc(F)cc1)c1ccc(F)cc1` [Example 11, 5-((2S,5R)-4-(Bis(4-fluorophenyl)methyl)-2,5-dimethylpiperazin-1-yl)thieno[2,3-e][1,2,4]triazolo[4,3-a]pyridine], the IC50 on DGKα is not above 20 nM; on DGKζ it was more than 2000 nM.

With `Cc1nn(C)c2c1c(N1C[C@@H](C)N(C(c3ccc(F)cc3)c3ccc(F)cc3)C[C@@H]1C)cc1nncn12` [Example 12, 4-((2S,5R)-4-(Bis(4-fluorophenyl)methyl)-2,5-dimethylpiperazin-1-yl)-1,3-dimethyl-1H-pyrazolo[4,3-e][1,2,4]triazolo[4,3-a]pyridine], the IC50 is not above 20 nM at DGKα and more than 2000 nM at DGKζ. On the same counts, the results for `COC[C@@H]1CN(c2nc3nncn3c3scnc23)[C@@H](C)CN1C(c1ccc(F)cc1)c1ccc(F)cc1` [Example 13, 4-((2S,5S)-4-(Bis(4-fluorophenyl)methyl)-5-(methoxymethyl)-2-methylpiperazin-1-yl)thiazolo[4,5-e][1,2,4]triazolo[4,3-a]pyrimidine] are not above 20 nM and 20 to 200 nM.

`C[C@H]1CN(C(c2ccc(F)cc2)c2ccc(F)cc2)[C@H](CC#N)CN1c1nc2nncn2c2scnc12` [Example 14, 2-((2R,5S)-1-(Bis(4-fluorophenyl)methyl)-5-methyl-4-(thiazolo[4,5-e][1,2,4]triazolo[4,3-a]pyrimidin-4-yl)piperazin-2-yl)acetonitrile]: the IC50 at DGKα and on DGKζ was not above 20 nM throughout. Take `C[C@H]1CN(C(c2ccc(F)cc2)c2ccc(F)cc2)[C@H](CC#N)CN1c1nc2nnc(C3CC3)n2c2scnc12` [Example 15, 2-((2R,5S)-1-(Bis(4-fluorophenyl)methyl)-4-(8-cyclopropylthiazolo[4,5-e][1,2,4]triazolo[4,3-a]pyrimidin-4-yl)-5-methylpiperazin-2-yl)acetonitrile]: the values for the IC50 on DGKα and on DGKζ were 20 to 200 nM and not above 20 nM, respectively.

Broadly, the IC50 is the concentration needed to halve the response being measured.
